Source: BindingDB's records for doi:10.1021/jm00398a022 (University of Wisconsin, 1988)

Molecular target: Cathepsin D (Oryctolagus cuniculus)
Assay: Inhibition of rabbit liver cathepsin D at pH 4.0

Ki: 3.5 µM
SMILES: COC(=O)[C@H](Cc1ccccc1)NC(=O)[C@H](CC(C)C)NC(=O)CC(O)[C@H](CC(C)C)NC(=O)[C@H](Cc1c[nH]cn1)NC(=O)COC(=O)C(C)(C)C (stereo partly drawn) [POA-His-Sta-Leu-PheOMe]
